Experimental data reported in patent US11986470B2, “Methods of treating prostate cancer” (Janssen Pharmaceutica NV, priority 2016, dated 2024).
Read-outs that look alike come from different tables or passages of the source.

Legend:
[1] = test system: γ-H2AX in LNCaP AR.TB cells; conditions: 18 hours
[2] = test system: poly(ADP)ribose (PAR) formation in C4-2B cells; conditions: 0.01-100 μM, two hours
Description: (§1) PAR inhibition using niraparib was assessed in 2 human prostate cancer cell lines, C4-2B and VCaP. The C4-2B cell line was grown in RPMI1640±GlutaMAX™-I medium supplemented with 10% FBS and NEAA and split every 3-4 days. VCaP cells were grown in DMEM+GlutaMAX™-I medium with FBS and NEAA and subcultured every 7 days.
(§2) Cells were harvested by brief trypsinization and each line was seeded into 6-well plates in 1 mL of medium at an appropriate density. An extra 500 μL of complete medium was added, for a total volume per well of 1.5 mL. Cells were rested overnight in the plates at 37° C. in a humidified 5% CO2 incubator. The next day, medium was removed from plates and cells were washed using 1 mL serum free medium (RPMI or DMEM respectively). Treatment was initiated by addition of 1 mL of niraparib (final concentrations 100, 10, 1, 0.1, 0.01 and 0 μM in 0.1% DMSO) in the appropriate medium to triplicate wells. Plates were returned to the incubator for two hours.
(§3) Following treatment, extracts were prepared using reagents and procedures provided in the HT PARP in vivo Pharmacodynamic Assay II (Trevigen #4520-096-K). Medium was removed from each well and placed into separate labeled microfuge tubes, and the plates were placed on ice. The tubes were spun at 1500 rpm for 4 minutes to pellet any cells that detached from the plate during drug incubation.
(§4) Samples were assayed in duplicate.

[3] = test system: poly(ADP)ribose (PAR) formation in VCaP cells; conditions: 0.01-100 μM, two hours
Description: as §1, §2, §3, §4

[4] = test system: C4-2B human prostate tumors
Description: This tumor model is not believed to be BRCA-1 or BRCA-2 deficient. Vehicle was 0.5% Methyl cellulose (MethocelTM [MUT]) prepared and kept at 4° C. in the dark. All formulations were made to be dosed at a volume of 10 ml/kg body weight. NSG male mice (Jackson Laboratories) were used. Animals were habituated for one week prior to any experimental procedures being performed. […] Mice were fed an autoclaved high fat (6%) diet laboratory chow and water ad libitum. Mice were injected with LNCaP C4-2B-luc tagged cells (1×10^6 tumors cells in a 200 μl volume of Cultrex®:RPMI 1640 medium (1:1 ratio) on the right flank. […] Mice were dosed daily by gavage (p.o.) with either vehicle, or vehicle containing niraparib as indicated below at 10 ml/kg dosing volume. Start of treatment=Day 1. Mice were treated through study day 24. […] For each individual animal, body weight and tumor volume [using the formula: Tumor Volume (mm3)=(a×b^2/2); where 'a' represents the length, and 'b' the width of the tumor as determined by caliper measurements], were monitored twice weekly throughout the study. For the pre-established tumors, a time-course of tumor growth is expressed as mean±standard error of the mean (SEM).

γ-H2AX in 22RV1 cells = conditions: 22RV1 (printed 22AV1), 18 hours
LNCaP AR.TB cells = experiment: cells; conditions: Homo sapiens, 168 h
Description: (§5) In vitro cytotoxicity of niraparib was assessed in 5 human prostate cancer cell lines: C4-2B, LNCaP, LNCaP AR.TB, VCaP, and 22Rv1. C4-2B, LNCaP, LNCaP AR.TB, and 22Rv1 cell lines were grown in RPMI1640±GlutaMAX™-I medium (Life Technologies #61870-036) supplemented with 10% heat-inactivated fetal bovine serum (FBS) (Life Technologies 416140-071) and non-essential amino acids (NEAA) (Life Technologies #11140-050); and VCaP cells were grown in DMEM+GlutaMAX™-I medium (Life Technologies ##10569-010) with 10% FBS and NEAA. VCaP cells were subcultured every 7 days; other lines were split every 3-4 days. Cell growth kinetics of each cell line were determined by seeding cells at several densities and monitoring growth at intervals up to 7 days. Growth was determined using the Promega Cell TiterGlo reagent (#G7571) to measure cellular ATP by means of a chemiluminescent luciferin-luciferase reaction. […] For niraparib cytotoxicity experiments, cells were harvested by brief trypsinization and each line was seeded to the inner 60 wells of 96-well plates in 100 μL of medium at an appropriate density for a 7-day treatment. The outer wells of each plate were filled with Dulbecco's phosphate buffered saline (DPBS; Life Technologies #14190-144) to reduce evaporation from test wells. Cells were rested overnight in the plates at 37° C. in a humidified 5% CO2 incubator. […] The final vehicle concentration was 0.5% DMSO. Cells were cultured for 7 days. Relative cell viability after treatment was determined using Cell TiterGlo reagent, as above. All luminescent output values were normalized to percent inhibition based on mean luminescence of the untreated control wells, and the mean percent inhibition of the vehicle control wells was subtracted from each treatment value. Percent inhibition was plotted vs log μM concentration in GraphPad Prism 7.00. Nonlinear regression and calculation of EC50 values were performed using the log(agonist) vs. response—Variable slope (four parameters) fit.

VCaP cells = experiment: cells; conditions: 7-day niraparib treatment
Description: as §5

LNCaP cells = experiment: cells; conditions: Homo sapiens, 168 h
Description: as §5

22Rv1 cells = experiment: cells; conditions: Homo sapiens, 22Rv1, 168 h
Description: as §5

C4-2B cells = experiment: cells; conditions: 7-day niraparib treatment
Description: as §5

γ-H2AX in C4-2B cells = conditions: C4-2B (printed C4-28), 18 hours

EC50 (LNCaP AR.TB cells): 2.14 µM
EC50 (VCaP cells): 4.1 µM
EC50 (VCaP cells; Homo sapiens, 168 h): 4.1 µM
EC50 (LNCaP cells): 3.5 µM
EC50 (22Rv1 cells): 3.52 µM
EC50 (C4-2B cells): 1.22 µM
EC50 (C4-2B cells; Homo sapiens, 168 h): ~1.2 µM
SMILES: NC(=O)c1cccc2cn(-c3ccc([C@@H]4CCCNC4)cc3)nc12 [niraparib, 2-[4-[(3S)-piperidin-3-yl]phenyl]indazole-7-carboxamide]
1st Significant Concentration (minimum concentration that induces significant change in γ-H2AX) [1]: 3.13 µM
PAR (pg PAR/mg of protein) [2]: reduced in a dose-dependent fashion
PAR (pg PAR/mg of protein) [3]: reduced in a dose-dependent fashion
tumor growth inhibition (TGI) ([4]; 25 mg/kg QD p.o., days 22 and 24, not significant): ~12%
tumor growth inhibition (TGI) ([4]; 50 mg/kg QD p.o., days 18, 22 and 24, significant): ~40%
1st Significant Concentration (minimum concentration that induces significant change in γ-H2AX) (γ-H2AX in 22RV1 cells): 1.57 µM
1st Significant Concentration (minimum concentration that induces significant change in γ-H2AX) (γ-H2AX in C4-2B cells): 1.57 µM
